Test results taken from the supplement of paper PMC10307832.

Legend:
Assay in all cases: relative viability (nuclei count vs DMSO), 5 days (fraction); higher = more cells survive
[1] = compound: C1=CC2=C(C=C(C(=C2N=C1)O)N=NC3=CC4=C(C=C3)C=C(C=C4)S(=O)(=O)O)S(=O)(=O)O + CS(=O)(=O)CCNCc1ccc(-c2ccc3ncnc(Nc4ccc(OCc5cccc(F)c5)c(Cl)c4)c3c2)o1 [Lapatinib] (partner 2 µM)
Method in brief: (§1)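 Relative viability equals treated-well nuclei counts divided by vehicle-well nuclei counts. Counts came from 4× images of lung cancer cell lines grown in 1536-well plates for 5 days after pin-tool dosing on the day after seeding. Dosing used one drug alone or a fixed anchor-drug dose plus five library-drug doses (not always all listed) in √10 steps, and values are medians of duplicate plates.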

[2] = compound: O=C(NC1CCNCC1)c1n[nH]cc1NC(=O)c1c(Cl)cccc1Cl [AT-7519] + O=C(c1cc(Cc2n[nH]c(=O)c3ccccc23)ccc1F)N1CCN(C(=O)C2CC2)CC1 [Olaparib] (partner 8 µM)
Method in brief: as §1

[3] = compound: O=C(NC1CCNCC1)c1n[nH]cc1NC(=O)c1c(Cl)cccc1Cl [AT-7519] + C[C@@H](Oc1cc(-c2cnn(C3CCNCC3)c2)cnc1N)c1c(Cl)ccc(F)c1Cl [Crizotinib] (partner 1 µM)
Method in brief: as §1

[4] = compound: C1=CC2=C(C=C(C(=C2N=C1)O)N=NC3=CC4=C(C=C3)C=C(C=C4)S(=O)(=O)O)S(=O)(=O)O + Cc1nc(Nc2ncc(C(=O)Nc3c(C)cccc3Cl)s2)cc(N2CCN(CCO)CC2)n1 [Dasatinib] (partner 0.075 µM)
Method in brief: as §1

Cell Line	relative viability ([1]; first compound 0.08 µM)	relative viability ([1]; first compound 0.253 µM)	relative viability ([1]; first compound 0.8 µM)	relative viability ([1]; first compound 2.53 µM)	relative viability ([1]; first compound 8 µM)	relative viability ([2]; first compound 0.01 µM)	relative viability ([2]; first compound 0.03162 µM)	relative viability ([2]; first compound 0.3162 µM)	relative viability ([2]; first compound 1 µM)	relative viability ([3]; first compound 0.01 µM)	relative viability ([3]; first compound 0.03162 µM)	relative viability ([3]; first compound 0.3162 µM)	relative viability ([3]; first compound 1 µM)	relative viability ([4]; first compound 0.08 µM)	relative viability ([4]; first compound 0.253 µM)	relative viability ([4]; first compound 0.8 µM)	relative viability ([4]; first compound 2.53 µM)	relative viability ([4]; first compound 8 µM)
NCI-H2126	0.808	0.723	0.723	0.777	0.759	0.902	0.935	0.932	0.874	1.07	1.05	0.931	1	0.711	0.645	0.64	0.713	0.693
NCI-H2170	0.267	0.272	0.271	0.292	0.286	0.585	0.59	0.608	0.562	1.16	1.26	1.18	1.18	0.636	0.574	0.659	0.633	0.55
NCI-H2228	0.966	1.29	0.986	1.21	1.06	0.54	0.602	0.569	0.208	0.549	0.379	0.403	0.313	0.639	0.469	0.464	0.514	0.49
NCI-H2347	1.05	0.921	0.839	0.882	0.824	0.619	0.506	0.561	0.41	0.627	0.706	0.645	0.573	0.317	0.316	0.333	0.343	0.247
NCI-H2405	1.04	1.07	0.979	1.02	1	0.89	0.783	0.906	0.606	0.794	0.847	0.827	0.598	0.146	0.226	0.208	0.201	0.219
NCI-H3122	0.99	0.982	1.04	0.947	1.01	0.664	0.651	0.627	0.579	0.272	0.277	0.241	0.208	0.954	0.741	0.716	0.882	0.0807
PC-3 [JPC-3]	0.483	0.474	0.484	0.445	0.426	1.19	1.1	1.09	0.981	1.09	0.99	0.962	0.95	1.11	0.98	1.03	1.05	1
PC-14	0.369	0.333	0.322	0.357	0.329	0.234	0.227	0.231	0.104	0.755	0.911	0.818	0.811	0.257	0.288	0.296	0.31	0.281
RERF-LC-KJ	0.873	0.851	0.854	0.835	0.788	0.884	0.964	0.659	0.242	0.802	0.738	0.963	0.806	0.803	0.965	0.943	0.958	0.888
